Columns and labels:
[1] = tested on: new emigrant/transitional B cells; assay: Frequencies of autoreactive new emigrant/transitional B cells (central B cell tolerance) in humanized NSG mice engrafted with PTPN22 C/T or T/T HSCs; type: in vivo, NSG mice engrafted with human HSCs
Procedure: FIG. 7, comprising FIG. 7A through FIG. 7C depicts results of experiments showing inhibition of PTPN22 enzymatic activity resets central B cell tolerance. FIG. 7A depicts a schematic diagram depicting the PTPN22 inhibitor treatment strategy. NSG mice generated with CD34+ HSCs carrying PTPN22 T allele(s) were injected twice daily with 0.75 mg or 0.15 mg of PTPN22 inhibitor for one week. FIG. 7B depicts the frequencies of polyreactive new emigrant B cells from NSG mice carrying PTPN22 T allele(s) and treated with the PTPN22 inhibitor were determined and compared to those of non-treated NSG mice. […] For each B-cell fraction, the frequency of reactive (filled area) and non-reactive (open area) clones is summarized in pie charts with the total number of clones tested indicated in the center. In summarized reactivity panels on the right, each dot represents an untreated mouse and full and half-filled diamonds mice treated with either 0.75 or 0.15 mg of LTV-1 PTPN22 inhibitor, respectively. Averages are shown with a bar. FIG. 7C depicts the frequencies of HEp-2 reactive new emigrant B cells from NSG mice carrying PTPN22 T allele(s) and treated with the PTPN22 inhibitor were determined and compared to those of non-treated NSG mice. […] For each B-cell fraction, the frequency of reactive (filled area) and non-reactive (open area) clones is summarized in pie charts with the total number of clones tested indicated in the center. In summarized reactivity panels on the right, each dot represents an untreated mouse and full and half-filled diamonds mice treated with either 0.75 or 0.15 mg of LTV-1 PTPN22 inhibitor, respectively. Averages are shown with a bar.
Human CD34^+ cells were purified from fetal liver samples by density gradient centrifugation followed by positive immunomagnetic selection with anti-human CD34 microbeads (Miltenyi). Newborn NSG mice (within first 3 days of life) were sublethally irradiated (X-ray irradiation with X-RAD 320 irradiator at 180 cGy) and 100,000-150,000 CD34^+ cells in 20 μL of PBS were injected into the liver with a 22-gauge needle (Hamilton Company). Mice were used for experiments 10-12 weeks after transplantation. NSG mice treated with the PTPN22 inhibitor were injected twice daily i.p. with 0.75 mg or 0.15 mg of PTPN22 inhibitor for a week.
The pTRIP-Ubi-GFP lentiviral vector has been used for overexpression of PTPN22 variants and short hairpin RNA (shRNA) delivery. Vector constructions have been described previously (Cantaert et al., 2015, Immunity 43:884-95; Ruer-Laventie et al., 2015, Immun Inflamm Dis 3:265-79). The following sequence are used for human PTPN22 targeting: shRNA1 5′-[…]-3′ (SEQ ID NO: 1), shRNA2 5′-CTGTTGCCAACATCCTCTA-3′(SEQ ID NO: 3), or shRNA3 5′-AAGAATCCACCTGACTTCC-3′(SEQ ID NO: 2). Lentiviral particles were produced by transient transfection of 293T cells, as previously described (Schickel et al., 2012, EMBO Mol Med 4:1261-75). Viruses were then used to transduce CD34^+ HSCs in the presence of protamine sulfate (Sigma).
B cells were enriched from splenocytes using magnetic separation with CD19 microbeads (Miltenyi Biotech) and stained with CD19-Pacific Blue, CD10-PE-Cy7, CD21-APC and IgM-biotin (all from Biolegend) prior to purification. Single CD19^+CD10^+CD21^lowGFP^− or GFP^+ new emigrant B cells were sorted on a FACSAria (BD Biosciences) into 96-well PCR plates and immediately frozen on dry ice. […]

[2] = tested on: B cells isolated from humanized mice; assay: Calcium flux after BCR triggering in B cells isolated from humanized mice (flow cytometry); type: in vivo, humanized NSG mouse; settings: anti-IgM F(ab′)2 25 μg/mL
Procedure: (§1) FIG. 40A depicts the phosphorylation of SHIP1, Lyn and ERK1/2 in total cell lysates of Ramos B cells treated or not with the PTPN22 inhibitor LTV-1 (5 μg/mL) for the indicated times. The cells were subjected to immunoblot analysis of P-LYN P-SHIP1, P-ERK1/2, and β-ACTIN. FIG. 40B depicts flow cytometry analysis of calcium flux of Ramos B cells treated or not with the PTPN22 inhibitor LTV-1 (5 μg/mL) for the indicated times followed by stimulation with anti-IgM F(ab′)2 at the indicated concentrations. FIG. 40C depicts flow cytometry analysis of calcium flux of splenocyte cells treated or not with LTV-1 (0.75 mg) twice daily for 7 days and stimulated with anti-IgM F(ab′)2 (25 μg/mL). FIG. 40D depicts flow cytometry analysis of calcium flux of splenocyte expressing PTPN22 shRNA and stimulated with anti-IgM F(ab′)2 (25 μg/mL).
(§2) However, downstream ERK phosphorylation was not affected by PTPN22 inhibition (FIG. 40A). Since PTPN22 inhibition enhanced TCR signaling in Jurkat cell line, it was investigated if PTPN22 blockade may also increase BCR signaling and calcium flux induced by BCR triggering was measured in RAMOS cells in the presence or not of LTV-1. Calcium flux was increased by PTPN22 inhibition, especially at lower concentration of BCR triggering agent (FIG. 40B). […]

[3] = tested on: LYN; assay: Phosphorylation kinetics of LYN in RAMOS cells after BCR triggering (immunoblot); type: cell-based, human; settings: LTV-1 5 μg/mL
Procedure: as §1, §2

[4] = GFP+ shRNA+ PTPN22 C/T or T/T new emigrant/transitional B cells vs GFP- counterparts

| Compound | production of HEp-2 reactive clones [1, 4] | production of polyreactive clones [1, 4] | calcium flux after BCR triggering in GFP+ shRNA-expressing B cells ([2]; GFP+ vs GFP- B cells from humanized NSG mouse) | frequencies of HEp-2 reactive new emigrant/transitional B cells ([1]; PTPN22 C/T or T/T engrafted NSG mice, 0.75 mg LTV-1 i.p. twice daily for a week) | frequencies of polyreactive new emigrant/transitional B cells ([1]; PTPN22 C/T or T/T engrafted NSG mice, 0.75 mg LTV-1 i.p. twice daily for a week, vs non-treated) | anti-nuclear clone frequencies ([1]; PTPN22 C/T or T/T engrafted NSG mice, LTV-1 twice daily for a week) | phosphorylation of LYN at position Y396 [3] | calcium flux in B cells isolated from treated humanized mice ([2]; LTV-1 0.75 mg twice daily for 7 days, vs non-treated) |
| --- | --- | --- | --- | --- | --- | --- | --- | --- |
| shRNA #1: shRNA targeting human PTPN22, 5′-CTAGTGCTCTTGGTGTATATT-3′, delivered by GFP-tagged lentivirus | significantly reduced | significantly reduced | increased calcium flux |  |  |  |  |  |
| Cc1ccccc1N1C(=O)/C(=C/c2ccc(OCc3cccc(C(=O)O)c3)cc2)C(=O)NC1=S [LTV-1] |  |  |  | normalized | significantly reduced | remained very low | decreases | enhanced |

From patent US11311543B2, “Compositions and methods for inhibiting PTPN22” (YALE UNIVERSITY, priority 2016, dated 2022)
